Reference: US6864246B2, “Anilide and cyclodextrin complexes, their preparation and their use as medicine in particular for treating dyslipidemiae” (Pierre Fabre Medicament, priority 2001, dated 2005)
Converted amounts (≈) assume the structure as drawn. Like-named read-outs stand apart in the source and are kept apart here.

Assays:
[1] = 25° C.; cited from earlier work
[2] = Solubility at saturation of F12511 in solvents at 25° C.; assay type: physicochemical; details: thermodynamic from solid
Method: By way of example, the table below gives some characteristic solubilities at saturation, at 25° C.: […]

physchem = details: 25 °C, aqueous with cosolvent or surfactant or cyclodextrin, thermodynamic from solid
[3] = 1 h
[4] = Amount of F12511 solubilized in a solution of sodium lauryl sulfate at 5%

SMILES | Water-solubility [1] | solubility ([2]; Macrogol 400, 25 °C, organic solvent or mixture, Macrogol 400, 25° C., read-out: Solubility at saturation) [µg/mL] | solubility ([2]; corn oil, 25 °C, oil or lipid, Corn oil, 25° C., read-out: Solubility at saturation) [µg/mL] | solubility ([2]; ethanol, 25 °C, organic solvent or mixture, Ethanol, 25° C., read-out: Solubility at saturation) [µg/mL] | solubility ([2]; ethyl alcohol at 95%, 25 °C, organic solvent or mixture, ethyl alcohol at 95%, read-out: Solubility at saturation) [µg/mL] | solubility ([2]; water, 25 °C, water, Water, 25° C., limit of analytical detection, read-out: Solubility at saturation) [µg/mL] | solubility ([2]; water, 25 °C, water, water, limit of analytical detection, read-out: Solubility at saturation in water) [µg/mL] | solubility at 2 h (physchem; Amount of F12511 solubilized) [µg/mL] | solubility at 5 min (physchem; [4]) [µg/mL] | solubility at 30 min (physchem; [4]) [µg/mL] | solubility at 1 h (physchem; [4]) [µg/mL] | solubility at 2 h (physchem; [4]) [µg/mL] | Amount of F12511 solubilized in a solution of sodium lauryl sulfate at 5% [3] [µg/mL]
OC[C@H]1O[C@@H]2O[C@H]3[C@H](O)[C@@H](O)[C@@H](O[C@H]4[C@H](O)[C@@H](O)[C@@H](O[C@H]5[C@H](O)[C@@H](O)[C@@H](O[C@H]6[C@H](O)[C@@H](O)[C@@H](O[C@H]7[C@H](O)[C@@H](O)[C@@H](O[C@H]1[C@H](O)[C@H]2O)O[C@@H]7CO)O[C@@H]6CO)O[C@@H]5CO)O[C@@H]4CO)O[C@@H]3CO [α-cyclodextrin] | 14.2 g % ml, |  |  |  |  |  |  |  |  |  |  |  | 
CCCCCCCCCCCCS[C@H](C(=O)Nc1cc(C)c(O)c(C)c1C)c1ccccc1 [Example F12511, (S)-2′,3′,5′-trimethyl-4′-hydroxy-α-dodecylthiophenylacetanilide] |  | 1000 (≈ 2130 µM) | 300 (≈ 639 µM) | 7000 (≈ 14900 µM) | ≤ 2000 | < 0.05 | < 0.05 | ~10 (≈ 21.3 µM) | 1 (≈ 2.13 µM) | 3 (≈ 6.39 µM) | 5 (≈ 10.6 µM) | 11 (≈ 23.4 µM) | 5
